From US12263172B2, “Toll-like receptor agonists for use in the treatment of hepatitis b” (priority 2019, dated 2025)

Assay: Phase 1 single-ascending dose (Part 1): safety and tolerability in healthy adults
Assay type: in vivo, human
Method: This ongoing trial is a Phase 1 randomized, double-blind, placebo-controlled study in male and female healthy adult volunteers aged 18-55 years. All volunteers provided written, informed consent.
All volunteers were followed up for 4 weeks and safety and tolerability were continuously assessed throughout the study. All adverse events (AEs) were recorded from the time of consent to the completion visit and were graded using the DAIDS toxicity grading scale. Volunteers also underwent physical examinations, electrocardiograms, vital sign checks and clinical laboratory parameters (chemistry, haematology, urinalysis).

CCCCOc1nc(N)c2[nH]cc(Cc3ccc(CN4CCCC4)cc3)c2n1 [Compound 4]
1 (16.7%) n (%): ECG change from reference: QTcB (ms) [30; 60] (single dose 1.8 mg fasted) | lab toxicity: Amylase (U/L), upwards, Grade 1 (single dose 1.8 mg fasted) | lab toxicity: Cholesterol (mmol/L), upwards, Grade 1 (single dose 1.8 mg fasted) | lab toxicity: Creatine kinase (U/L), upwards, Grade 2 (single dose 1.8 mg fasted) | lab toxicity: Neutrophils, segmented (giga/L), downwards, Grade 2 (single dose 1.8 mg fasted) | lab toxicity: Sodium (mmol/L), upwards, Grade 2 (single dose 1.8 mg fasted)
2 (33.3%) n (%): subjects with Grade 2 treatment-related AEs (pyrexia, headache and hypertension) (single dose 1.8 mg) | lab toxicity: Lymphocytes (giga/L), downwards, Grade 4 (single dose 1.8 mg fasted) | lab toxicity: Platelets (giga/L), downwards, Grade 1 (single dose 1.8 mg fasted) | lab toxicity: Sodium (mmol/L), upwards, Grade 1 (single dose 1.8 mg fasted)
1 (17) n (%): Headache Grade 2 (treatment-emergent AE) (single dose 1.8 mg fasted) | Hypertension Grade 1 (treatment-emergent AE) (single dose 1.8 mg fasted) | Hypertension Grade 2 (treatment-emergent AE) (single dose 1.8 mg fasted) | Myalgia Grade 1 (treatment-emergent AE) (single dose 1.8 mg fasted) | Oropharyngeal pain Grade 1 (treatment-emergent AE) (single dose 1.8 mg fasted) | Pyrexia Grade 1 (treatment-emergent AE) (single dose 1.8 mg fasted) | Pyrexia Grade 2 (treatment-emergent AE) (single dose 1.8 mg fasted) | URTI Grade 1 (treatment-emergent AE) (single dose 1.8 mg fasted)
5 (83.3%) n (%): lab toxicity: Triglycerides (mmol/L), upwards, Grade 1 (single dose 1.8 mg fasted)
0 n (%): vital signs: Supine SBP (mmHg) Grade 1 (single dose 1.25 mg fed) | vital signs: Supine SBP (mmHg) Grade 2 (single dose 1.25 mg fed) | vital signs: Supine SBP (mmHg) Low (single dose 1.25 mg fed) | vital signs: Supine pulse (bpm) Low (single dose 1.25 mg fed) | ↑ AST Grade 3 (laboratory abnormality) (single dose 1.25 mg fed) | ↑ Amylase Grade 2 (laboratory abnormality) (single dose 1.25 mg fed) | ↑ Creatine kinase Grade 2 (laboratory abnormality) (single dose 1.25 mg fed) | ↑ Creatine kinase Grade 4 (laboratory abnormality) (single dose 1.25 mg fed) | ↑ Glucose Grade 2 (laboratory abnormality) (single dose 1.25 mg fed) | ↑ LDL cholesterol Grade 3 (laboratory abnormality) (single dose 1.25 mg fed) | ↑ Lipase Grade 2 (laboratory abnormality) (single dose 1.25 mg fed) | ↑ Pancreatic amylase Grade 2 (laboratory abnormality) (single dose 1.25 mg fed) | ↑ Potassium Grade 2 (laboratory abnormality) (single dose 1.25 mg fed) | ↑ Sodium Grade 2 (laboratory abnormality) (single dose 1.25 mg fed) | ↑ Triglycerides Grade 3 (laboratory abnormality) (single dose 1.25 mg fed) | ↓ Bicarbonate Grade 2 (laboratory abnormality) (single dose 1.25 mg fed) | ↓ GFR Grade 2 (laboratory abnormality) (single dose 1.25 mg fed) | ↓ Lymphocytes Grade 2 (laboratory abnormality) (single dose 1.25 mg fed) | ↓ Lymphocytes Grade 4 (laboratory abnormality) (single dose 1.25 mg fed) | ↓ Neutrophils Grade 2 (laboratory abnormality) (single dose 1.25 mg fed) | ECG actual value: Heart rate (bpm) Low (single dose 1.8 mg fasted) | ECG actual value: QRS (ms) High (single dose 1.8 mg fasted) | ECG actual value: QTcB (ms) ]450; 480] (single dose 1.8 mg fasted) | ECG actual value: QTcF (ms) ]450; 480] (single dose 1.8 mg fasted) | ECG change from reference: QTcF (ms) [30; 60] (single dose 1.8 mg fasted) | Headache Grade 1 (treatment-emergent AE) (single dose 1.8 mg fasted) | lab toxicity: Amylase (U/L), upwards, Grade 2 (single dose 1.8 mg fasted) | lab toxicity: Cholesterol (mmol/L), upwards, Grade 2 (single dose 1.8 mg fasted) | lab toxicity: Creatine kinase (U/L), upwards, Grade 1 (single dose 1.8 mg fasted) | lab toxicity: Creatine kinase (U/L), upwards, Grade 4 (single dose 1.8 mg fasted) | lab toxicity: Glucose (mmol/L), upwards, Grade 1 (single dose 1.8 mg fasted) | lab toxicity: Glucose (mmol/L), upwards, Grade 2 (single dose 1.8 mg fasted) | lab toxicity: LDL cholesterol (mmol/L, calculated), upwards, Grade 1 (single dose 1.8 mg fasted) | lab toxicity: LDL cholesterol (mmol/L, calculated), upwards, Grade 2 (single dose 1.8 mg fasted) | lab toxicity: LDL cholesterol (mmol/L, calculated), upwards, Grade 3 (single dose 1.8 mg fasted) | lab toxicity: Lymphocytes (giga/L), downwards, Grade 2 (single dose 1.8 mg fasted) | lab toxicity: Neutrophils, segmented (giga/L), downwards, Grade 1 (single dose 1.8 mg fasted) | lab toxicity: Triglycerides (mmol/L), upwards, Grade 2 (single dose 1.8 mg fasted)
3 (50) n (%): Contact dermatitis Grade 1 (treatment-emergent AE) (single dose 1.8 mg fasted)
Two: subjects with grade 1 increase in temperature around 12 hours after dosing (single dose 1.8 mg)
2 (33) n (%): Back pain Grade 1 (treatment-emergent AE) (single dose 1.8 mg fasted) | Chills Grade 1 (treatment-emergent AE) (single dose 1.8 mg fasted) | Dizziness Grade 1 (treatment-emergent AE) (single dose 1.8 mg fasted)
1 (14) n (%): ↑ Cholesterol Grade 2 (laboratory abnormality) (single dose 1.25 mg fed) | ↑ LDL cholesterol Grade 2 (laboratory abnormality) (single dose 1.25 mg fed) | ↑ Triglycerides Grade 2 (laboratory abnormality) (single dose 1.25 mg fed) | ↓ Phosphate Grade 2 (laboratory abnormality) (single dose 1.25 mg fed)
5 (83) n (%): Any AE (treatment-emergent) (single dose 1.8 mg fasted)
3 (50.0%) n (%): subjects with contact dermatitis (AE) (single dose 1.8 mg)
